Experiment [1] relates to AI-2 activity, V. harveyi reporter strain BB170. As to the kind of experiment: AI-2 assay (luminescence of reporter strain). Type of experiment: cell-based. How it is done: FIGS. 2A and 2B are graphs showing DHCP inhibits AI-2 activity. The AI-2 activity assay was carried out as described in Materials and Methods section of Example 1. The luminescence seen with V. harveyi BB152 was assumed as 100% and the other activities were expressed as relative %. In FIG. 2A, the lanes are as follows: Sterile AB medium, lane 1; V. harveyi BB152 culture fluid, lane 2; DHCP (250 μM), lane 3; DHCP (250 μM) plus V. harveyi BB152 culture fluid, lane 4. In FIG. 2B, DHCP was added to the reaction mixtures after maximum luminescence was generated by AI-2, at a concentration of 250 μM (closed circles) and 100 μM (open squares). The corresponding control activity of AI-2 without DHCP addition is also shown (open triangles). The light production was monitored at various time points with a liquid scintillation counter.
The AI-2 assays using V. harveyi reporter strain (BB170) were carried out as described by Surette and Bassler (Surette et al., 1999). Cell-free culture fluid from V. harveyi BB152 strain was used as a positive control. Sterile AB medium was used a negative control. Briefly, the V. harveyi BB170 strain was grown overnight with aeration at 30° C. in the AB medium and the cells were then diluted 1:5000 in the fresh medium. The diluted culture (90 μl) was added in the assay mixture containing 10 μl of AB medium or cell-free culture fluid of V. harveyi BB152/DHCP (100-250 μM). To check the effect of DHCP on the light production by AI-2, it was added to the reaction mixture after the maximum luminescence was achieved. The light production was monitored with a liquid scintillation counter.
In the present study, the AI-2 assay designed by Suretter and Bassler (Surette et al., 1999) was used. The V. harveyi BB170 reporter strain has the quorum-sensing phenotype, sensor 1^−, sensor 2^+. It induces lux expression through the signaling system 2 detector. Addition of 10% cell-free culture fluid prepared from V. harveyi BB152 strain (containing the system 2 autoinducer) stimulates luminescence expression in the reporter strain. […] The laboratory of the present inventors examined if DHCP inhibits the activity of AI-2. […] Sterile AB medium was used as a negative control (lane 1). […] It has been reported that the AI-2 gave maximum luminescence at approximately 10 μM concentration (Schauder et al., 2001). It should be noted that the DHCP concentration used in the present assay was in excess of the AI-2 concentration. It was also tested if DHCP can inhibit AI-2 activity when it is added after maximum luminescence is generated by AI-2. […] When it was added at the concentration of 100 μM (open squares), the AI-2 activity was reduced to zero after 40 min. The corresponding control activity without DHCP addition (open triangles) was completely stable.

The subject of a further experiment is E. coli JM83. To be noted: DHCP 250 μM, Phadtare et al., 2001, cited from earlier work.

Molecules are shown by their SMILES. Read-outs that look alike come from different tables or passages of the source. Bounds are passed on as bounds.

Turning to `O=C1C=CC(O)C1O` (stereo not drawn) [DHCP, 4,5-dihydroxy-2-cyclopenten-1-one], the “Time until AI-2 activity was reduced to zero” value in experiment [1] (DHCP 100 μM added after maximum luminescence generated by AI-2, FIG. 2B) is on record as 40 min; in experiment [1] (DHCP 250 μM added after maximum luminescence generated by AI-2, FIG. 2B), at most 8 min. Besides, in experiment [1] (DHCP 250 μM added immediately before AI-2 containing cell-free extract of V. harveyi BB152, FIG. 2A lane 4), the “Inhibition of AI-2 activity” value is listed as “completely inhibited”. For the same compound, the “AI-2 activity (luminescence) of DHCP itself” value in experiment [1] (DHCP 250 μM alone, FIG. 2A lane 3) is reported as “did not show AI-2 activity”. In addition, the “Growth of E. coli JM83” value was “severely impaired” with E. coli JM83 (after 3 h of incubation) and “stopped growing” in the experiment on E. coli JM83 (after 5 h).

Values taken from patent US20060035317A1, “Effect of treatment with 4,5-dihydroxy-2-cyclopenten-1-one (dhcp) on gene expression and quorum-sensing in bacteria” (priority 2002, published 2006).
